Publication PMC12598805, “Crystal Structure–Activity Relationship of Some MeO Phenylacrylonitriles: Dual Antimicrobial–Cytotoxic Effects and in Silico Perspectives” (ChemistryOpen, 2025)
Converted amounts (≈) assume the structure as drawn.

Experiments:
Type in all cases: cell-based
[1] = test system: Escherichia coli (ATCC 25922); assay: Agar diffusion, zone of inhibition; conditions: compounds at 50 mg mL^−1; for zone of inhibition: E.coli; for zone of inhibition at 50 mg/mL: Escherichia coli, ATCC25922, E.coli
Description: (§1) The antibacterial and antifungal activities were reported utilizing the method described by the Clinical & Laboratory Standards Institute.^[ [31], [32] ^] Agar diffusion method was used to determine the antimicrobial activity of the synthesized substances. The media used were mueller hinton agar (MHA) for bacteria and sabouraud‐dextrose agar (SDA) for fungi (Merck), as recommended by the manufacturer.
(§2) The synthesized compounds were initially investigated for their antimicrobial activity to elucidate the potential therapeutic utility against various pathogenic microbes using the agar plate diffusion method. The compounds were tested at a concentration of 50 mg mL^−1, and the antibiotics (ampicillin, kanamycin, and amphotericin B) were used at 5 mg mL^−1. […] K.pneumoniae and B.cereus were resistant to ampicillin, while they were susceptible to kanamycin with inhibition values of 30 and 26 mm, respectively. No antimicrobial activity of the compounds was observed against E.faecalis, S.typhimurium, K.pneumoniae, and for the fungus compared to Amphotericin B (20 mm). […]
Escherichia coli (ATCC 25922) […]
(§3) ATCC: American Type Culture Collection; NRRL: Northern Regional Research Laboratory The compounds 2(a-c) obtained could only be completely solubilised with dimethyl sulphoxide (DMSO) and the highest possible stock solutions of 50 mg.mL-1 were prepared. To these wells 50 μl of the previously prepared substances were transferred using sterile micropipette tips. For comparison, Ampicillin and kanamycin antibiotics for bacteria and Amphotericin B antibiotics for fungus were used as positive controls and DMSO was used as negative control. The prepared petri plates were kept at +4°C for about 1 hour and then the bacterial cultures were incubated at 37°C for 18-24 hours and mould cultures at 27-30°C for 48-72 hours. The zones formed were measured millimetrically with callipers. The experiments were performed with three repetitions. […]

[2] = test system: Bacillus cereus (ATCC-10876); assay: Agar diffusion, zone of inhibition; conditions: B.cereus, compounds at 50 mg mL^−1; for zone of inhibition at 50 mg/mL: Bacillus cereus, ATCC10876
Description: as §1
The synthesized compounds were initially investigated for their antimicrobial activity to elucidate the potential therapeutic utility against various pathogenic microbes using the agar plate diffusion method. The compounds were tested at a concentration of 50 mg mL^−1, and the antibiotics (ampicillin, kanamycin, and amphotericin B) were used at 5 mg mL^−1. […] K.pneumoniae and B.cereus were resistant to ampicillin, while they were susceptible to kanamycin with inhibition values of 30 and 26 mm, respectively. No antimicrobial activity of the compounds was observed against E.faecalis, S.typhimurium, K.pneumoniae, and for the fungus compared to Amphotericin B (20 mm).
Bacillus cereus (ATCC-10876) […]
as §3

[3] = test system: Staphylococcus aureus (ATCC 29213); assay: Broth microdilution MIC; conditions: ATCC29213, S.aureus
Protocol: (§4) Staphylococcus aureus (ATCC 29213) […]
(§5) ATCC: American Type Culture Collection; NRRL: Northern Regional Research Laboratory The compounds 2(a-c) obtained could only be completely solubilised with dimethyl sulphoxide (DMSO) and the highest possible stock solutions of 50 mg.mL-1 were prepared. […]
(§6) 3.1. Determination of Minimum Inhibition Concentration (MIC)
(§7) The minimum inhibition concentration (MIC) values of the compounds 2(a-c) against the test bacteria used in the study were determined according to the broth microdilution method.[1-2] MHB or SDB was used as test medium and bacterial and yeast suspensions were prepared at 0.5 Mc Farland concentration for each test bacteria. Double layer serial dilutions were prepared in "U" type 96-well microtiter plates. Medium+bacteria suspensions containing only medium in the first row, medium+bacteria in the second row and the final concentrations of the synthesised substances in the other rows between 25 mg.mL-1 and […] were added to the wells with a final volume of 200
(§8) μL. Ampicillin, Kanamycin and Amphotericin B standard antibiotics were used as positive controls.
Bacteria were incubated at 37±0.1 °C and C. albicans at 30±0.1 °C for 24-48 hours and the lowest concentration without growth was determined as MIC. Tests were performed in two parallel runs and mean values were given as a result. […]

[4] = test system: Salmonella typhimurium (NRRL-B-4420); assay: Agar diffusion, zone of inhibition; conditions: Salmonella enterica; S.typhimurium; compounds at 50 mg mL^−1
Description: as §1, §2
Salmonella typhimurium (NRRL-B-4420) […]
as §3

[5] = test system: Micrococcus luteus (NRRL-B-1018); assay: MBC by sub-culture from wells without growth; conditions: NRRLB1018, M.luteus
Protocol: (§9) Micrococcus luteus (NRRL-B-1018) […]
as §5, §6, §7, §8
Bacteria were incubated at 37±0.1 °C and C. albicans at 30±0.1 °C for 24-48 hours and the lowest concentration without growth was determined as MIC. Tests were performed in two parallel runs and mean values were given as a result. In order to estimate “the minimum bactericidal/fungicidal concentrations (MBC/MFC) of the synthesised acrylonitrile derivatives “needed to indicate […] killing of the original inoculum,” 10 μl was taken from the wells with no observed growth and further sub-cultured onto their agar media (MHA and SDA for bacterial and fungal strains, respectively).[3] […]

[6] = test system: Micrococcus luteus (NRRL-B-1018); assay: Agar diffusion, zone of inhibition; conditions: M.luteus, compounds at 50 mg mL^−1; for zone of inhibition at 50 mg/mL: Micrococcus luteus, NRRLB1018
Description: as §1, §2, §9, §3

[7] = test system: Staphylococcus aureus (ATCC 29213); assay: Agar diffusion, zone of inhibition; conditions: S.aureus, compounds at 50 mg mL^−1; for zone of inhibition at 50 mg/mL: Staphylococcus aureus, ATCC29213
Description: as §1, §2, §4, §3

| MIC [3] | Structure (SMILES) | zone of inhibition [1] | zone of inhibition at 50 mg/mL [1] | zone of inhibition [2] | zone of inhibition at 50 mg/mL [2] | zone of inhibition at 50 mg/mL [4] | MBC [5] | zone of inhibition [6] | zone of inhibition at 50 mg/mL [6] | zone of inhibition [7] | zone of inhibition at 50 mg/mL [7] |
| --- | --- | --- | --- | --- | --- | --- | --- | --- | --- | --- | --- |
| 12.5 mg/mL (≈ 53.1 mM) | COc1ccc(C=C(C#N)c2ccccc2)cc1 [2a, 3‐(4‐methoxyphenyl)‐2‐phenylacrylonitrile] | 13 ± 0.71 mm | 13 mm | 15 ± 2.12 mm | 15 mm | < 6 mm | 6250 µg/mL (≈ 26.6 mM) | 14 ± 0.71 mm | 14 mm | 14 ± 0.71 mm | 14 mm |
| 12.5 mg/mL (≈ 49.4 mM) | COc1ccc(/C=C(\C#N)c2ccc(F)cc2)cc1 [2b] | 12 ± 1.41 mm | 12 mm | 13 ± 2.83 mm | 13 mm | < 6 mm | 12500 µg/mL (≈ 49.4 mM) | 14 ± 0.71 mm | 14 mm | 13 ± 0 mm | 13 mm |
| 6.25 mg/mL (≈ 16.8 mM) | COc1ccc(/C=C(\C#N)c2cc(C(F)(F)F)cc(C(F)(F)F)c2)cc1 [2c] | 13 ± 0 mm | 13 mm | 14 ± 0.71 mm | 14 mm | < 6 mm | 5000 µg/mL (≈ 13.5 mM) | 15 ± 0.71 mm | 15 mm | 14 ± 1.41 mm | 14 mm |
